From the OPERA property sets (Mansouri et al. 2018)

Details: for log10 biotransformation half-life (days) / log10 BCF: fish

Clc1ccc2cc(Cl)ccc2c1
boiling point: 285 °C
melting point: 140 °C

CCCCCC(=O)OC
boiling point: 150 °C
log10 Henry constant (atm·m³/mol): -3.44
log10 vapour pressure (mmHg): 0.57
melting point: -71 °C

CC(C)(C)NC=O
boiling point: 202 °C
log10 vapour pressure (mmHg): -0.569
melting point: 16 °C

COc1ccc(C=CC(=O)c2ccc(OC)cc2OC)cc1
melting point: 97 °C

O=S(=O)(O)c1ccc2cc(O)ccc2c1
melting point: 125 °C

CCOc1ccc2ccccc2c1
boiling point: 282 °C
melting point: 37.5 °C

CCCCc1cccc2[nH]nnc12
log10 Koc (L/kg): 2.16

O=c1[nH]c(=O)n([C@H]2C[C@H](O)[C@@H](CO)O2)cc1C(F)(F)F
melting point: 188 °C

c1cc2c3c(c4ccc5ccccc5c4cc3c1)CC2
melting point: 174 °C

CC(C)C1CC=C(C=O)CC1 (stereo not given)
boiling point: 223 °C

O=C1C[C@@H](c2ccc(O)cc2)Oc2cc(O)cc(O)c21
melting point: 251 °C

CCC#CCCCCC(=O)O
melting point: 14 °C

CCCN(CCC)C(=O)SCC
log10 Koc (L/kg): 2.38
log10 vapour pressure (mmHg): -1.62

O=C1C(Br)=C(Br)C(=O)C(Br)=C1Br
melting point: 293 °C

C[C@H](N)Cc1ccccc1
boiling point: 203 °C

O=C(Cl)c1cc([N+](=O)[O-])cc([N+](=O)[O-])c1
melting point: 74 °C

c1ccc(C2=NNCC2)cc1
melting point: 45.8 °C

CCCC(C)I (stereo not given)
boiling point: 150 °C
log10 vapour pressure (mmHg): 1.04
melting point: -50 °C

CC(=O)C1CC=C(C)CC1 (stereo not given)
boiling point: 171 °C

CC(=O)Oc1c(I)cc(I)cc1C(=O)Nc1ccc(Cl)cc1
melting point: 216 °C

Clc1ccc(-c2ccc(Cl)c(Cl)c2Cl)cc1Cl
log10 Koa: 10
log10 vapour pressure (mmHg): -5.18
log10 biotransformation half-life (days): 2.06

CC(=O)c1ccc(C#N)cc1
melting point: 57.5 °C

CCCCCCCCOc1ccccc1
boiling point: 285 °C
melting point: 8 °C

C1CCC(CCCC2CCCC2)CC1
boiling point: 270 °C

O=C1CCC(=O)O1
boiling point: 261 °C
log10 vapour pressure (mmHg): -2.82
melting point: 119 °C

Clc1cccc(Cl)c1-c1ccccc1
log10 Henry constant (atm·m³/mol): -3.64

CCNS(=O)(=O)C(F)(F)C(F)(F)C(F)(F)C(F)(F)C(F)(F)C(F)(F)C(F)(F)C(F)(F)F
boiling point: 196 °C
log10 vapour pressure (mmHg): -6.37
melting point: 96 °C

CCc1ccsc1
boiling point: 136 °C
melting point: -89.1 °C

C[C@@H](S)C(=O)O
melting point: 12 °C

CCCCCCC(C)O (racemic)
boiling point: 179 °C
melting point: 3.5 °C

CN(C)c1ccc(N=O)cc1
melting point: 92.5 °C

COC(=O)Nc1nc2cc(C(=O)c3ccccc3)ccc2[nH]1
melting point: 288 °C

N=C(N)NC(=O)c1nc(Cl)c(N)nc1N
melting point: 241 °C

CCC(C)C(C)=O (stereo not given)
boiling point: 118 °C
log10 vapour pressure (mmHg): 1.06

CCc1ccccc1-c1ccccc1CC
ready biodegradability: not readily biodegradable

Oc1ccc(Sc2ccc(O)cc2)cc1
melting point: 155 °C

CC(Br)C(=O)c1ccccc1 (stereo not given)
boiling point: 248 °C

CC(=O)CCC=C(C)C
boiling point: 174 °C
melting point: -67.1 °C
ready biodegradability: readily biodegradable

NC(=O)Nc1ccc(F)cc1
log10 Koc (L/kg): 1.52

CC(=O)Oc1cc(C)c(OC(C)=O)c2ccccc12
melting point: 113 °C

CC(=O)N=C1C=CC(=O)C=C1
melting point: 74.5 °C

CN(C)c1ccc([N+](=O)[O-])cc1
log10 vapour pressure (mmHg): -5.22
melting point: 164 °C

O=C(O)c1ccc(C(=O)O)c(C(=O)O)c1
melting point: 219 °C

C=CC=C
boiling point: -4.4 °C
log10 vapour pressure (mmHg): 3.32
melting point: -109 °C

CCOC(=O)c1ccc2ccccc2c1
boiling point: 308 °C
melting point: 32 °C

CNC(=O)Oc1cc(C)c(N(C)C)c(C)c1
log10 Koc (L/kg): 2.48
melting point: 85 °C
log10 BCF: 1.42

CCS(=O)(=O)CCn1c([N+](=O)[O-])cnc1C
melting point: 128 °C

CC(=O)NC(Cc1c[nH]c2ccccc12)C(=O)O (stereo not given)
melting point: 190 °C

Cc1ccccc1CC#N
boiling point: 244 °C

CCCCCCCCSC#N
melting point: 105 °C

FCCCCCl
boiling point: 115 °C

O=C(O)/C=C/c1ccc(Cl)cc1Cl
melting point: 234 °C

COS(=O)(=O)Cl
boiling point: 134 °C
melting point: -70 °C

COc1ccc(C(=O)O)c(OC)c1
melting point: 109 °C

CCCCC(CCCC)c1ccncc1
ready biodegradability: readily biodegradable

CC(=O)CC(=O)CC(C)=O
melting point: 49 °C

O=C1c2ccccc2C(=O)C1c1ccc2ccccc2n1
melting point: 241 °C

O=C=Nc1ccc(N=C=O)cc1
boiling point: 260 °C
melting point: 97.5 °C

NCCc1ccc(O)cc1
melting point: 164 °C

CC(=O)N(C)C(C)=O
boiling point: 195 °C
melting point: -25 °C

CC1COC(Cn2cncn2)(c2ccc(Oc3ccc(Cl)cc3)cc2Cl)O1 (stereo not given)
log10 vapour pressure (mmHg): -9.6
melting point: 76 °C

CCCC(Br)CBr (stereo not given)
log10 vapour pressure (mmHg): 0.153

COP(=S)(OC)Oc1cc(Cl)c(Br)cc1Cl
log10 vapour pressure (mmHg): -3.89
melting point: 53.5 °C
log10 BCF: 3.59
log10 biotransformation half-life (days): 0.97

CC1C=CCC2C(=O)OC(=O)C12 (stereo not given)
ready biodegradability: not readily biodegradable

Cc1cccc2c1CCCC2C (stereo not given)
boiling point: 239 °C

CCCCCCC(C)(C)O
boiling point: 178 °C

CC(C=O)Cc1ccc(C(C)(C)C)cc1 (stereo not given)
ready biodegradability: not readily biodegradable

CCCCCCCCCCCc1ccccc1
boiling point: 316 °C
log10 vapour pressure (mmHg): -3.62
melting point: -5 °C

Cc1cccnc1N
boiling point: 222 °C
melting point: 33.5 °C

CC1CCCC(C)N1C(=O)COC(=O)c1ccccc1 (stereo not given)
melting point: 118 °C

O=C(O)c1ccc(Cl)cc1[N+](=O)[O-]
melting point: 144 °C

C=C=C
boiling point: -34.4 °C
log10 vapour pressure (mmHg): 3.73
melting point: -136 °C

COP(=S)(OC)SCN1C(=O)c2ccccc2C1=O
log10 Koc (L/kg): 2.91
log10 vapour pressure (mmHg): -6.31
melting point: 72 °C
log10 BCF: 0.26

CC1CS(=O)(=O)CCN1N=Cc1ccc([N+](=O)[O-])o1 (stereo not given)
melting point: 181 °C

CC(C)(C)c1ccc(N)cc1
boiling point: 241 °C
melting point: 17 °C

BrC1c2ccccc2-c2ccccc21
melting point: 104 °C

CCS(=O)CC
melting point: 14 °C

CC=C(C)CCl
boiling point: 110 °C

O=C(O)CCI
melting point: 81.5 °C

O/N=C\c1cc[n+](COC[n+]2ccc(/C=N\O)cc2)cc1.[Cl-].[Cl-]
melting point: 220 °C

Brc1ccc(Oc2c(Br)cc(Br)cc2Br)c(Br)c1
logP: 7.24
log10 BCF: 6.36

CC(C)CCCC(C)CCO (stereo not given)
boiling point: 212 °C

COc1ccc2c(c1)CCCN2
boiling point: 284 °C
melting point: 42.5 °C

Clc1ccc(SSc2ccc(Cl)cc2)cc1
melting point: 68 °C

Cc1c(O)c(Br)c(Br)c(Br)c1Br
melting point: 208 °C

N#Cc1cccnc1
boiling point: 207 °C
log10 Henry constant (atm·m³/mol): -6.56
log10 Koc (L/kg): 1.56
log10 vapour pressure (mmHg): -0.529
melting point: 51 °C
ready biodegradability: not readily biodegradable

C1CNCCNC1
boiling point: 169 °C
melting point: 43.5 °C

Cc1nc2ccccc2c(=O)n1-c1ccccc1Cl
melting point: 127 °C

CC1=CC[C@@H](C(C)C)CC1
boiling point: 174 °C

CCCCCCCCCCCCCCCCCCC(=O)O
boiling point: 300 °C
melting point: 69.4 °C

Cc1nc2ccccc2[nH]1
melting point: 176 °C

O=c1c(O)c(-c2ccc(O)cc2)oc2cc(O)cc(O)c12
melting point: 277 °C

N#Cc1sc2c(=O)c3ccccc3c(=O)c=2sc1C#N
log10 vapour pressure (mmHg): -10.7
melting point: 225 °C
ready biodegradability: not readily biodegradable

O=C(O)CCCCCCCCCCC(=O)O
melting point: 128 °C

FSC(F)(F)F
boiling point: 148 °C

NC(=O)CC(N)C(=O)O (stereo not given)
melting point: 234 °C

CC(C)NCC(O)c1ccc(NS(C)(=O)=O)cc1 (stereo not given)
melting point: 207 °C

CC(C)CCCC(=O)O
boiling point: 216 °C

CCCC(=O)Nc1ccc(O)cc1
melting point: 140 °C

CC(=O)C(Cl)Cl
boiling point: 120 °C
log10 vapour pressure (mmHg): 1.43

CCOC(=O)c1ccc(O)c(OC)c1
boiling point: 292 °C
melting point: 44 °C

Nc1cc(C(Cl)=C(Cl)Cl)c(S(N)(=O)=O)cc1S(N)(=O)=O
melting point: 203 °C

Clc1ccccc1-c1cc(Cl)c(Cl)c(Cl)c1Cl
log10 vapour pressure (mmHg): -4.16

O/N=C\c1ccccc1
boiling point: 200 °C
melting point: 36.5 °C

COc1cc(O)c2c(=O)c(O)c(-c3ccc(O)c(O)c3)oc2c1
melting point: 295 °C

CN1CCC[C@H]1c1cccnc1
boiling point: 247 °C
log10 Koc (L/kg): 2.01
log10 vapour pressure (mmHg): -1.42
melting point: -79 °C

C=CC1CN2CCC1CC2C(=O)c1ccnc2ccc(OC)cc12 (stereo not given)
melting point: 108 °C

Cc1ccc(C)c(C=O)c1
boiling point: 220 °C

CCCCS
boiling point: 98.5 °C
log10 Henry constant (atm·m³/mol): -2.34
log10 vapour pressure (mmHg): 1.66
melting point: -116 °C

CCCCOC(=O)c1ccccc1O
boiling point: 271 °C
melting point: -5.9 °C

O=C(O)C1CCC1
boiling point: 190 °C
melting point: -2 °C

CCCCCCOCCO
boiling point: 208 °C
log10 vapour pressure (mmHg): -0.81
melting point: -45.1 °C

COC(=O)c1cccnc1
boiling point: 204 °C
melting point: 42.5 °C

Nc1cccc2c1C(=O)c1cccc(N)c1C2=O
melting point: 319 °C

C=COCCCl
boiling point: 108 °C
log10 vapour pressure (mmHg): 1.43
melting point: -70 °C
ready biodegradability: readily biodegradable

CCCCCCCC/C=C\CCCCCCCC(=O)OC
log10 vapour pressure (mmHg): -5.2
melting point: -19.9 °C
ready biodegradability: readily biodegradable

CN(C)c1ccc(Cl)cc1
boiling point: 231 °C
melting point: 35.5 °C

CCCCOc1ccc(C(=O)OCCN(CC)CC)cc1
melting point: 146 °C

Cc1cccc(N2CC(CO)OC2=O)c1 (stereo not given)
melting point: 76 °C

CN1CC[C@]23CCCC[C@H]2[C@H]1Cc1ccc(O)cc13
melting point: 198 °C

Brc1ccc(Oc2ccc(Br)cc2)cc1
boiling point: 339 °C
log10 Koa: 8.64
melting point: 60.5 °C

CCN(CC)c1ccc(C(=O)c2ccccc2C(=O)O)c(O)c1
ready biodegradability: not readily biodegradable

N#CSc1ccccc1
boiling point: 232 °C

NC12CC3CC(CC(C3)C1)C2
melting point: 180 °C

c1ccc(-c2ccccc2)cc1
boiling point: 256 °C
log10 Henry constant (atm·m³/mol): -3.51
log10 Koa: 6.15
log10 Koc (L/kg): 3.27
log10 biodegradation half-life (days): 1.49
log10 vapour pressure (mmHg): -2.05
ready biodegradability: readily biodegradable
log10 BCF: 2.64

NC(=O)OCC(O)c1ccccc1 (stereo not given)
melting point: 112 °C

CC1CCC(O)CC1 (stereo not given)
boiling point: 172 °C

O=C(O)c1cc(F)cc(F)c1
melting point: 122 °C

CC(C)(C(N)=O)n1nnc2ccccc21
melting point: 187 °C

COc1cc(O)c2c(c1)OC(c1ccc(O)cc1)CC2=O (stereo not given)
melting point: 152 °C

O=C(Nc1ccc(Br)cc1)c1cc(Br)cc(Br)c1O
melting point: 227 °C
